For 7 molecules, GI50 and TGI results are on record in PubChem BioAssay (NCI).

Some test systems named below: A498 renal; ACHN renal; HCC-2998 colon; HCT-116 colon; KM12 colon; M14 melanoma; NCI-H460 lung; RXF 393 renal; SNB-19 CNS; U251 CNS.
What all share (experiment): DTP human tumour cell line panel, 48 h

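Test compounds were applied to cells in 96-well plates for 48 hours at 5 doses. Abbreviation: GI50, concentration required for 50% inhibition of growth. TGI: total growth inhibition.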

The GI50 is the concentration at which growth is held to half of that of the control. One may read the TGI as the concentration at which net growth stops. Lower therefore signals more potent growth arrest. `COc1cc2nc(C)nc(N[C@H](C)c3cc(N)cc(C(F)(F)F)c3)c2cc1O[C@H]1CCOC1`: the GI50 in the experiment on A498 renal is 0.109 µM; in the experiment on ACHN renal, 11.6 µM; in the experiment with HCC-2998 colon it was 17 µM; in the experiment on HCT-116 colon, 11.4 µM; in the experiment with KM12 colon it was 14.9 µM; in the experiment on M14 melanoma it was 16.1 µM. Further, the GI50 in the experiment on NCI-H460 lung was 18.5 µM; with RXF 393 renal it was 5.88 µM; in the experiment on SNB-19 CNS it was 12.7 µM; with U251 CNS, 10.6 µM. Moreover, the TGI in the experiment on A498 renal turned out to be 7.84 µM; in the experiment on ACHN renal, 23.9 µM; in the experiment on HCC-2998 colon, 33.2 µM; in the experiment on HCT-116 colon, 29.6 µM; in the experiment on KM12 colon, 30 µM; in the experiment with M14 melanoma it was 31.7 µM. Besides, the TGI came to 36.6 µM with NCI-H460 lung, 22 µM in the experiment on RXF 393 renal, 27.4 µM in the experiment on SNB-19 CNS and 23.7 µM with U251 CNS.

As to `O=C(NCCNc1nccc(-c2c(-c3cccc(O)c3)nc3sccn23)n1)c1ccccc1O`, the GI50 with A498 renal was 7.67 µM; with ACHN renal, 3.35 µM; in the experiment on HCC-2998 colon it was 5.67 µM; with HCT-116 colon, 3.42 µM; in the experiment on KM12 colon, 4.41 µM; in the experiment on M14 melanoma, 0.342 µM. Further, the GI50 with NCI-H460 lung is 4.16 µM; in the experiment on RXF 393 renal it was 2.78 µM; in the experiment on SNB-19 CNS, 12.6 µM; with U251 CNS, 4.9 µM. The TGI in the experiment on A498 renal was 28.2 µM; in the experiment on ACHN renal, more than 53.4 µM; in the experiment on HCC-2998 colon, 22.5 µM; in the experiment with HCT-116 colon it was 14.9 µM; in the experiment on KM12 colon, 15.7 µM; with M14 melanoma it was 13.6 µM. Moreover, the TGI is 19.6 µM in the experiment with NCI-H460 lung, 16.8 µM with RXF 393 renal, more than 78.7 µM in the experiment with SNB-19 CNS and more than 47.6 µM in the experiment on U251 CNS.

As for `COc1ccc(-c2cc(-c3ccc(Nc4nc(Nc5ccccc5)nc(Nc5ccc(Cl)cc5)n4)cc3)nc(N)c2C#N)cc1`, the GI50 in the experiment on A498 renal was 2.49 µM; with ACHN renal, 0.885 µM; in the experiment with HCC-2998 colon, 1.41 µM; in the experiment on HCT-116 colon, 0.675 µM; in the experiment with KM12 colon, 0.961 µM; with M14 melanoma, 0.887 µM. In addition, the GI50 is 2.18 µM with NCI-H460 lung, 0.654 µM in the experiment with RXF 393 renal, more than 24.8 µM with SNB-19 CNS and 1.23 µM with U251 CNS. Also, the TGI worked out at 11.1 µM in the experiment on A498 renal; 1.77 µM in the experiment with ACHN renal; 4.41 µM in the experiment with HCC-2998 colon; 1.37 µM in the experiment with HCT-116 colon; 2.14 µM in the experiment on KM12 colon; 1.81 µM in the experiment on M14 melanoma. Moreover, the TGI in the experiment with NCI-H460 lung was more than 39 µM; in the experiment with RXF 393 renal, 1.89 µM; in the experiment on SNB-19 CNS, more than 50 µM; with U251 CNS, 3.68 µM.

For `NC1CCC(Nc2nc(NCc3ccc(-c4ccco4)nc3)c3ncn(C4CCCC4)c3n2)CC1` (stereo not given), the concentration for 50% growth inhibition (GI50) with A498 renal was 0.0311 µM; in the experiment on ACHN renal it was 0.242 µM; in the experiment on HCC-2998 colon, 0.0316 µM; in the experiment on HCT-116 colon, 0.0324 µM; in the experiment on KM12 colon, 0.0107 µM; with M14 melanoma, 0.0213 µM. The GI50 with NCI-H460 lung was 0.0469 µM; with RXF 393 renal, 0.0179 µM; in the experiment on SNB-19 CNS, 0.0275 µM; in the experiment on U251 CNS, 0.0344 µM. In addition, the TGI in the experiment with A498 renal was found to be 0.0941 µM; in the experiment on HCC-2998 colon it was 0.627 µM; with HCT-116 colon it was 11.1 µM; in the experiment on KM12 colon, 0.086 µM; with M14 melanoma it was 0.193 µM; with NCI-H460 lung, 11.3 µM. Moreover, the results for the TGI in the experiment with RXF 393 renal, in the experiment on SNB-19 CNS and in the experiment with U251 CNS were 0.04 µM, 12.5 µM and 12.6 µM, respectively.

Take `COC(=O)Nc1nc2ccc(S(=O)c3ccccc3)cc2[nH]1` (stereo not given): the GI50 in the experiment on A498 renal is 15.5 µM; in the experiment with ACHN renal it was 7.59 µM; in the experiment with HCC-2998 colon, 10.5 µM; with HCT-116 colon, 3.5 µM; with KM12 colon it was 4.48 µM; with M14 melanoma, 3.11 µM. Further, the GI50 was 4.17 µM in the experiment on NCI-H460 lung, 3.28 µM in the experiment on RXF 393 renal, 6.12 µM in the experiment with SNB-19 CNS and 4.45 µM in the experiment with U251 CNS. The TGI in the experiment on A498 renal, in the experiment on ACHN renal, with HCC-2998 colon, in the experiment on HCT-116 colon, in the experiment with KM12 colon and in the experiment on M14 melanoma was more than 100 µM throughout. Moreover, the TGI in the experiment on NCI-H460 lung was more than 100 µM; with RXF 393 renal, 26.7 µM; in the experiment with SNB-19 CNS it was more than 100 µM; in the experiment on U251 CNS, more than 100 µM.

`CCOc1ccccc1-n1c(CN2CCN(C(=O)COc3ccc(CNCCCCCCN4C5CCCC4CC(OC(=O)Nc4cc(C)ccc4OC)C5)cc3)CC2)nc2ccccc2c1=O` (stereo not given): the GI50 in the experiment on A498 renal was 2.11 µM; in the experiment on ACHN renal it was 2.4 µM; in the experiment with HCC-2998 colon, 1.57 µM; in the experiment with HCT-116 colon, 0.616 µM; in the experiment with KM12 colon it was 1.66 µM; in the experiment on M14 melanoma it was 1.43 µM. In addition, the GI50 is 0.806 µM with NCI-H460 lung, 1.38 µM in the experiment with RXF 393 renal, 1.76 µM in the experiment with SNB-19 CNS and 0.61 µM with U251 CNS. Moreover, the TGI in the experiment on A498 renal amounted to 4.64 µM; with ACHN renal, 5.9 µM; with HCC-2998 colon, 3.15 µM; in the experiment with HCT-116 colon, 1.32 µM; in the experiment with KM12 colon it was 3.27 µM; in the experiment on M14 melanoma, 3.01 µM. Besides, the TGI in the experiment with NCI-H460 lung is 1.94 µM; in the experiment on RXF 393 renal, 2.88 µM; with SNB-19 CNS, 3.35 µM; in the experiment on U251 CNS it was 1.2 µM.

`CSc1ccccc1C#C/C=C\C#Cc1ccccc1N1CCCC1=O`: the GI50 in the experiment with A498 renal is more than 50 µM; with ACHN renal it was more than 22.9 µM; in the experiment with M14 melanoma, more than 12.3 µM; with RXF 393 renal it was 2.91 µM; in the experiment on SNB-19 CNS it was more than 11 µM; in the experiment on U251 CNS, more than 11 µM. For the same molecule, the TGI in the experiment with A498 renal was more than 50 µM; with ACHN renal, more than 50 µM; in the experiment on HCC-2998 colon it was more than 33.8 µM; in the experiment on HCT-116 colon, more than 50 µM; in the experiment on KM12 colon it was more than 17.6 µM; with M14 melanoma it was more than 50 µM. In addition, the TGI was more than 50 µM in the experiment with NCI-H460 lung, 25.8 µM in the experiment with RXF 393 renal, more than 50 µM in the experiment on SNB-19 CNS and more than 50 µM with U251 CNS.
